# PubChem BioAssay AID1963825 (Molecular Pharmacology Branch, DTP, NCI, 2024)
# Experiment: Anticancer human tumor 997537-175-T-J1-PDC patient-derived colon adenocarcinoma cell line growth inhibition [POLQ]
# Details: 997537-175-T-J1-PDC complex spheroid viability, combination with POLQ inhibitors; second compound 0.0316 µM; first compound 3.16 µM; stronger effect = lower value
# Outline: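 Growth inhibition in 3D: complex spheroids (tumor PDC, HUVEC, MSC) treated with POLQ inhibitor combinations; where Cmax unknown, highest tested concentration 10 microM, except SN-38 at 1 microM.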
# 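Also: luminescence signal used as a surrogate for viable cells; spheroids exposed to drugs for seven days before readout.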
row,SMILES,"viability, T/C [%]"
1,CCc1cc2c(N3CCc4c(cc(Cn5ccnc5)cc4-c4cn(C)nc4C(F)(F)F)C3=O)cc(C)nc2c(OC)n1 + Nc1ccc(C#CCN(C(=O)Cc2ncc(C(F)(F)F)cc2C(F)(F)F)c2ccc(F)cc2)nn1,76
2,COc1ccc([C@@H](O)c2cc(-c3ncnc4cc(N5CCOCC5)ccc34)c(F)cc2Cl)nn1 + Nc1ccc(C#CCN(C(=O)Cc2ncc(C(F)(F)F)cc2C(F)(F)F)c2ccc(F)cc2)nn1,85
3,COc1cc2cc(C(=O)CCC(=O)O)sc2cc1OC + Cc1cccc(N(C)C(=O)C2C(O)CCN2c2nc(C)cc(C(F)(F)F)c2C#N)c1,98.4

# Same assay, conditions: 997537-175-T-J1-PDC complex spheroid viability, combination with POLQ inhibitors; second compound 0.0316 µM; first compound 10 µM; stronger effect = lower value
row,SMILES,"viability, T/C [%]"
1,CCc1cc2c(N3CCc4c(cc(Cn5ccnc5)cc4-c4cn(C)nc4C(F)(F)F)C3=O)cc(C)nc2c(OC)n1 + Nc1ccc(C#CCN(C(=O)Cc2ncc(C(F)(F)F)cc2C(F)(F)F)c2ccc(F)cc2)nn1,67.4
2,COc1ccc([C@@H](O)c2cc(-c3ncnc4cc(N5CCOCC5)ccc34)c(F)cc2Cl)nn1 + Nc1ccc(C#CCN(C(=O)Cc2ncc(C(F)(F)F)cc2C(F)(F)F)c2ccc(F)cc2)nn1,74.3
3,COc1cc2cc(C(=O)CCC(=O)O)sc2cc1OC + Cc1cccc(N(C)C(=O)C2C(O)CCN2c2nc(C)cc(C(F)(F)F)c2C#N)c1,88.3

# Same assay, conditions: 997537-175-T-J1-PDC complex spheroid viability, combination with POLQ inhibitors; second compound 0.1 µM; first compound 0.00316 µM; stronger effect = lower value
row,SMILES,"viability, T/C [%]"
1,COc1cccc(OCCCN)c1-c1cc(Nc2cnc(C#N)cn2)n[nH]1 + COC1C(OC(N)=O)C(O)C(Oc2ccc3c(O)c(NC(=O)c4ccc(O)c(CC=C(C)C)c4)c(=O)oc3c2C)OC1(C)C,106

# Same assay, conditions: 997537-175-T-J1-PDC complex spheroid viability, combination with POLQ inhibitors; second compound 0.1 µM; first compound 0.01 µM; stronger effect = lower value
row,SMILES,"viability, T/C [%]"
1,COc1cccc(OCCCN)c1-c1cc(Nc2cnc(C#N)cn2)n[nH]1 + COC1C(OC(N)=O)C(O)C(Oc2ccc3c(O)c(NC(=O)c4ccc(O)c(CC=C(C)C)c4)c(=O)oc3c2C)OC1(C)C,64.9

# Same assay, conditions: 997537-175-T-J1-PDC complex spheroid viability, combination with POLQ inhibitors; second compound 0.1 µM; first compound 0.0316 µM; stronger effect = lower value
row,SMILES,"viability, T/C [%]"
1,CCc1cc2c(N3CCc4c(cc(Cn5ccnc5)cc4-c4cn(C)nc4C(F)(F)F)C3=O)cc(C)nc2c(OC)n1 + Nc1ccc(C#CCN(C(=O)Cc2ncc(C(F)(F)F)cc2C(F)(F)F)c2ccc(F)cc2)nn1,88.7
2,COc1ccc([C@@H](O)c2cc(-c3ncnc4cc(N5CCOCC5)ccc34)c(F)cc2Cl)nn1 + Nc1ccc(C#CCN(C(=O)Cc2ncc(C(F)(F)F)cc2C(F)(F)F)c2ccc(F)cc2)nn1,98.8
3,COc1cc2cc(C(=O)CCC(=O)O)sc2cc1OC + Cc1cccc(N(C)C(=O)C2C(O)CCN2c2nc(C)cc(C(F)(F)F)c2C#N)c1,98.7
4,COc1cccc(OCCCN)c1-c1cc(Nc2cnc(C#N)cn2)n[nH]1 + COC1C(OC(N)=O)C(O)C(Oc2ccc3c(O)c(NC(=O)c4ccc(O)c(CC=C(C)C)c4)c(=O)oc3c2C)OC1(C)C,76.8

# Same assay, conditions: 997537-175-T-J1-PDC complex spheroid viability, combination with POLQ inhibitors; second compound 0.1 µM; first compound 0.1 µM; stronger effect = lower value
row,SMILES,"viability, T/C [%]"
1,CCc1cc2c(N3CCc4c(cc(Cn5ccnc5)cc4-c4cn(C)nc4C(F)(F)F)C3=O)cc(C)nc2c(OC)n1 + Nc1ccc(C#CCN(C(=O)Cc2ncc(C(F)(F)F)cc2C(F)(F)F)c2ccc(F)cc2)nn1,97
2,COc1ccc([C@@H](O)c2cc(-c3ncnc4cc(N5CCOCC5)ccc34)c(F)cc2Cl)nn1 + Nc1ccc(C#CCN(C(=O)Cc2ncc(C(F)(F)F)cc2C(F)(F)F)c2ccc(F)cc2)nn1,110
3,COc1cc2cc(C(=O)CCC(=O)O)sc2cc1OC + Cc1cccc(N(C)C(=O)C2C(O)CCN2c2nc(C)cc(C(F)(F)F)c2C#N)c1,120
4,COc1cccc(OCCCN)c1-c1cc(Nc2cnc(C#N)cn2)n[nH]1 + COC1C(OC(N)=O)C(O)C(Oc2ccc3c(O)c(NC(=O)c4ccc(O)c(CC=C(C)C)c4)c(=O)oc3c2C)OC1(C)C,43.2

# Same assay, conditions: 997537-175-T-J1-PDC complex spheroid viability, combination with POLQ inhibitors; second compound 0.1 µM; first compound 0.316 µM; stronger effect = lower value
row,SMILES,"viability, T/C [%]"
1,CCc1cc2c(N3CCc4c(cc(Cn5ccnc5)cc4-c4cn(C)nc4C(F)(F)F)C3=O)cc(C)nc2c(OC)n1 + Nc1ccc(C#CCN(C(=O)Cc2ncc(C(F)(F)F)cc2C(F)(F)F)c2ccc(F)cc2)nn1,77.7
2,COc1ccc([C@@H](O)c2cc(-c3ncnc4cc(N5CCOCC5)ccc34)c(F)cc2Cl)nn1 + Nc1ccc(C#CCN(C(=O)Cc2ncc(C(F)(F)F)cc2C(F)(F)F)c2ccc(F)cc2)nn1,99
3,COc1cc2cc(C(=O)CCC(=O)O)sc2cc1OC + Cc1cccc(N(C)C(=O)C2C(O)CCN2c2nc(C)cc(C(F)(F)F)c2C#N)c1,94.7
4,COc1cccc(OCCCN)c1-c1cc(Nc2cnc(C#N)cn2)n[nH]1 + COC1C(OC(N)=O)C(O)C(Oc2ccc3c(O)c(NC(=O)c4ccc(O)c(CC=C(C)C)c4)c(=O)oc3c2C)OC1(C)C,51.6

# Same assay, conditions: 997537-175-T-J1-PDC complex spheroid viability, combination with POLQ inhibitors; second compound 0.1 µM; first compound 1 µM; stronger effect = lower value
row,SMILES,"viability, T/C [%]"
1,CCc1cc2c(N3CCc4c(cc(Cn5ccnc5)cc4-c4cn(C)nc4C(F)(F)F)C3=O)cc(C)nc2c(OC)n1 + Nc1ccc(C#CCN(C(=O)Cc2ncc(C(F)(F)F)cc2C(F)(F)F)c2ccc(F)cc2)nn1,79.6
2,COc1ccc([C@@H](O)c2cc(-c3ncnc4cc(N5CCOCC5)ccc34)c(F)cc2Cl)nn1 + Nc1ccc(C#CCN(C(=O)Cc2ncc(C(F)(F)F)cc2C(F)(F)F)c2ccc(F)cc2)nn1,98.3
3,COc1cc2cc(C(=O)CCC(=O)O)sc2cc1OC + Cc1cccc(N(C)C(=O)C2C(O)CCN2c2nc(C)cc(C(F)(F)F)c2C#N)c1,105
4,COc1cccc(OCCCN)c1-c1cc(Nc2cnc(C#N)cn2)n[nH]1 + COC1C(OC(N)=O)C(O)C(Oc2ccc3c(O)c(NC(=O)c4ccc(O)c(CC=C(C)C)c4)c(=O)oc3c2C)OC1(C)C,17

# Same assay, conditions: 997537-175-T-J1-PDC complex spheroid viability, combination with POLQ inhibitors; second compound 0.1 µM; first compound 3.16 µM; stronger effect = lower value
row,SMILES,"viability, T/C [%]"
1,CCc1cc2c(N3CCc4c(cc(Cn5ccnc5)cc4-c4cn(C)nc4C(F)(F)F)C3=O)cc(C)nc2c(OC)n1 + Nc1ccc(C#CCN(C(=O)Cc2ncc(C(F)(F)F)cc2C(F)(F)F)c2ccc(F)cc2)nn1,68.3
2,COc1ccc([C@@H](O)c2cc(-c3ncnc4cc(N5CCOCC5)ccc34)c(F)cc2Cl)nn1 + Nc1ccc(C#CCN(C(=O)Cc2ncc(C(F)(F)F)cc2C(F)(F)F)c2ccc(F)cc2)nn1,71.5
3,COc1cc2cc(C(=O)CCC(=O)O)sc2cc1OC + Cc1cccc(N(C)C(=O)C2C(O)CCN2c2nc(C)cc(C(F)(F)F)c2C#N)c1,99.3

# Same assay, conditions: 997537-175-T-J1-PDC complex spheroid viability, combination with POLQ inhibitors; second compound 0.1 µM; first compound 10 µM; stronger effect = lower value
row,SMILES,"viability, T/C [%]"
1,CCc1cc2c(N3CCc4c(cc(Cn5ccnc5)cc4-c4cn(C)nc4C(F)(F)F)C3=O)cc(C)nc2c(OC)n1 + Nc1ccc(C#CCN(C(=O)Cc2ncc(C(F)(F)F)cc2C(F)(F)F)c2ccc(F)cc2)nn1,74.9
2,COc1ccc([C@@H](O)c2cc(-c3ncnc4cc(N5CCOCC5)ccc34)c(F)cc2Cl)nn1 + Nc1ccc(C#CCN(C(=O)Cc2ncc(C(F)(F)F)cc2C(F)(F)F)c2ccc(F)cc2)nn1,71
3,COc1cc2cc(C(=O)CCC(=O)O)sc2cc1OC + Cc1cccc(N(C)C(=O)C2C(O)CCN2c2nc(C)cc(C(F)(F)F)c2C#N)c1,93.3

# Same assay, conditions: 997537-175-T-J1-PDC complex spheroid viability, combination with POLQ inhibitors; second compound 0.316 µM; first compound 0.00316 µM; stronger effect = lower value
row,SMILES,"viability, T/C [%]"
1,COc1cccc(OCCCN)c1-c1cc(Nc2cnc(C#N)cn2)n[nH]1 + COC1C(OC(N)=O)C(O)C(Oc2ccc3c(O)c(NC(=O)c4ccc(O)c(CC=C(C)C)c4)c(=O)oc3c2C)OC1(C)C,107

# Same assay, conditions: 997537-175-T-J1-PDC complex spheroid viability, combination with POLQ inhibitors; second compound 0.316 µM; first compound 0.01 µM; stronger effect = lower value
row,SMILES,"viability, T/C [%]"
1,COc1cccc(OCCCN)c1-c1cc(Nc2cnc(C#N)cn2)n[nH]1 + COC1C(OC(N)=O)C(O)C(Oc2ccc3c(O)c(NC(=O)c4ccc(O)c(CC=C(C)C)c4)c(=O)oc3c2C)OC1(C)C,95

# Same assay, conditions: 997537-175-T-J1-PDC complex spheroid viability, combination with POLQ inhibitors; second compound 0.316 µM; first compound 0.0316 µM; stronger effect = lower value
row,SMILES,"viability, T/C [%]"
1,CCc1cc2c(N3CCc4c(cc(Cn5ccnc5)cc4-c4cn(C)nc4C(F)(F)F)C3=O)cc(C)nc2c(OC)n1 + Nc1ccc(C#CCN(C(=O)Cc2ncc(C(F)(F)F)cc2C(F)(F)F)c2ccc(F)cc2)nn1,93.4
2,COc1ccc([C@@H](O)c2cc(-c3ncnc4cc(N5CCOCC5)ccc34)c(F)cc2Cl)nn1 + Nc1ccc(C#CCN(C(=O)Cc2ncc(C(F)(F)F)cc2C(F)(F)F)c2ccc(F)cc2)nn1,110
3,COc1cc2cc(C(=O)CCC(=O)O)sc2cc1OC + Cc1cccc(N(C)C(=O)C2C(O)CCN2c2nc(C)cc(C(F)(F)F)c2C#N)c1,105
4,COc1cccc(OCCCN)c1-c1cc(Nc2cnc(C#N)cn2)n[nH]1 + COC1C(OC(N)=O)C(O)C(Oc2ccc3c(O)c(NC(=O)c4ccc(O)c(CC=C(C)C)c4)c(=O)oc3c2C)OC1(C)C,63.8

# Same assay, conditions: 997537-175-T-J1-PDC complex spheroid viability, combination with POLQ inhibitors; second compound 0.316 µM; first compound 0.1 µM; stronger effect = lower value
row,SMILES,"viability, T/C [%]"
1,CCc1cc2c(N3CCc4c(cc(Cn5ccnc5)cc4-c4cn(C)nc4C(F)(F)F)C3=O)cc(C)nc2c(OC)n1 + Nc1ccc(C#CCN(C(=O)Cc2ncc(C(F)(F)F)cc2C(F)(F)F)c2ccc(F)cc2)nn1,87.3
2,COc1ccc([C@@H](O)c2cc(-c3ncnc4cc(N5CCOCC5)ccc34)c(F)cc2Cl)nn1 + Nc1ccc(C#CCN(C(=O)Cc2ncc(C(F)(F)F)cc2C(F)(F)F)c2ccc(F)cc2)nn1,109
3,COc1cc2cc(C(=O)CCC(=O)O)sc2cc1OC + Cc1cccc(N(C)C(=O)C2C(O)CCN2c2nc(C)cc(C(F)(F)F)c2C#N)c1,97.7
4,COc1cccc(OCCCN)c1-c1cc(Nc2cnc(C#N)cn2)n[nH]1 + COC1C(OC(N)=O)C(O)C(Oc2ccc3c(O)c(NC(=O)c4ccc(O)c(CC=C(C)C)c4)c(=O)oc3c2C)OC1(C)C,55.3

# Same assay, conditions: 997537-175-T-J1-PDC complex spheroid viability, combination with POLQ inhibitors; second compound 0.316 µM; first compound 0.316 µM; stronger effect = lower value
row,SMILES,"viability, T/C [%]"
1,CCc1cc2c(N3CCc4c(cc(Cn5ccnc5)cc4-c4cn(C)nc4C(F)(F)F)C3=O)cc(C)nc2c(OC)n1 + Nc1ccc(C#CCN(C(=O)Cc2ncc(C(F)(F)F)cc2C(F)(F)F)c2ccc(F)cc2)nn1,99.5
2,COc1ccc([C@@H](O)c2cc(-c3ncnc4cc(N5CCOCC5)ccc34)c(F)cc2Cl)nn1 + Nc1ccc(C#CCN(C(=O)Cc2ncc(C(F)(F)F)cc2C(F)(F)F)c2ccc(F)cc2)nn1,91
